Results as given in ChEMBL document CHEMBL3414510 (J Med Chem, 2015).

How the values were obtained:
Mus musculus = experiment: Clearance in Balb/C mouse at 5 mg/kg, iv and po relative to liver blood flow; format: ADME, organism-based; parameters: dose 5 mg/kg, route oral; conditions: in vivo
Liver = experiment: Metabolic stability in CD1 mouse liver microsomes after 30 mins by LC/MS analysis; format: ADME; conditions: 0.5 h
[1] = Permeability across human Caco2 cells; format: ADME, cell-based; conditions: caco-2

CL (Mus musculus): 50%
Stability (Liver): Stable
permeability [1]: permeable
Compound: Cn1cc(CCn2cnc(-c3cnn(C)c3)c2-c2ccc(C#N)cc2)cn1
